In ChEMBL document CHEMBL1201862, “PubChem BioAssay data set” (2004):
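96-well plates; 48 h exposure; 5 concentrations. Endpoints by linear interpolation between flanking doses. Not reached: highest tested concentration assigned. GI50 is the concentration that inhibits growth by half.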 Activity calls are given as the source filed them. Rule as the data show it: active = GI50 up to about 1.1 µM and inactive = higher.

Assays:
Assay in all cases: growth of human tumour cells (NCI), 48 h
[1] = system: UO-31
[2] = system: 786-0
[3] = system: KM12
[4] = system: IGROV-1
[5] = system: MDA-N
[6] = system: SF-268
[7] = system: HCT-15
[8] = system: OVCAR-4
[9] = system: SF-295
[10] = system: NCI-H226
[11] = system: HCC 2998
[12] = system: NCI/ADR-RES
[13] = system: CAKI-1
[14] = system: K562
[15] = system: U-251
[16] = system: M14
[17] = system: T47D
[18] = system: SN12C
[19] = system: SNB-19
[20] = system: COLO 205

Compound | GI50 [1] | GI50 [2] | GI50 [3] | GI50 [4] | GI50 [5] | GI50 [6] | GI50 [7] [µM] | GI50 [8] | GI50 [9] | GI50 [10] | GI50 [11] | GI50 [12] | GI50 [13] | GI50 [14] | GI50 [15] | GI50 [16] | GI50 [17] | GI50 [18] | GI50 [19] | GI50 [20]
NCC(=O)Nc1ccccc1 | > 100 µM (inactive) | > 100 µM (inactive) | > 100 µM (inactive) | > 100 µM (inactive) | > 100 µM (inactive) | > 100 µM (inactive) | > 100 | > 100 µM (inactive) | > 100 µM (inactive) | > 100 µM (inactive) | > 100 µM (inactive) | > 100 µM (inactive) | > 100 µM (inactive) | 60.5 µM (inactive) | > 100 µM (inactive) | > 100 µM (inactive) | > 100 µM (inactive) | > 100 µM (inactive) | > 100 µM (inactive) | –
Cc1cc(OC(=O)Nc2cccc3ccccc23)c(C(C)C)cc1C(=S)Nc1ccccc1 | 17.6 µM (inactive) | 23.4 µM (inactive) | 16.3 µM (inactive) | 13.6 µM (inactive) | 17.9 µM (inactive) | 23.9 µM (inactive) | 10.9 | 11 µM (inactive) | 0.0608 µM (active) | – | 20.6 µM (inactive) | 16.6 µM (inactive) | 22.1 µM (inactive) | 5.77 µM (inactive) | 18.1 µM (inactive) | 18.6 µM (inactive) | 8.17 µM (inactive) | – | 27.2 µM (inactive) | 19.6 µM (inactive)
CCSC1=N/C(=C\c2ccc(N(C)C)cc2)C(Cl)=N1 | > 100 µM (inactive) | > 100 µM (inactive) | > 100 µM (inactive) | > 100 µM (inactive) | > 100 µM (inactive) | > 100 µM (inactive) | > 100 | > 100 µM (inactive) | > 100 µM (inactive) | > 100 µM (inactive) | > 100 µM (inactive) | > 100 µM (inactive) | > 100 µM (inactive) | – | > 100 µM (inactive) | > 100 µM (inactive) | 37.7 µM (inactive) | > 100 µM (inactive) | > 100 µM (inactive) | > 100 µM (inactive)
CC(C)(C)C1CCC2c3c([nH]c4ccccc34)C3C(=O)N(c4ccc5c(c4)C(=O)c4ccccc4C5=O)C(=O)C3C2C1 (stereo not given) | – | > 100 µM (inactive) | > 100 µM (inactive) | > 100 µM (inactive) | > 100 µM (inactive) | > 100 µM (inactive) | > 100 | > 100 µM (inactive) | > 100 µM (inactive) | > 100 µM (inactive) | > 100 µM (inactive) | > 100 µM (inactive) | > 100 µM (inactive) | > 100 µM (inactive) | > 100 µM (inactive) | > 100 µM (inactive) | > 100 µM (inactive) | > 100 µM (inactive) | > 100 µM (inactive) | > 100 µM (inactive)
CCCC[S+]([O-])CCC(N)P(=O)(O)O (stereo not given) | > 100 µM (inactive) | > 100 µM (inactive) | > 100 µM (inactive) | > 100 µM (inactive) | > 100 µM (inactive) | > 100 µM (inactive) | > 100 | > 100 µM (inactive) | > 100 µM (inactive) | > 100 µM (inactive) | – | > 100 µM (inactive) | > 100 µM (inactive) | > 100 µM (inactive) | > 100 µM (inactive) | > 100 µM (inactive) | > 100 µM (inactive) | > 100 µM (inactive) | > 100 µM (inactive) | > 100 µM (inactive)
O=C(NNC(=S)NCc1ccccc1)c1csc(NC(=S)NC2CCCCC2)n1 | 21.8 µM (inactive) | 45.8 µM (inactive) | 49.9 µM (inactive) | 31.3 µM (inactive) | 28.9 µM (inactive) | 27.6 µM (inactive) | 37.5 | – | 42.1 µM (inactive) | 5.93 µM (inactive) | 37.3 µM (inactive) | 31.3 µM (inactive) | 47.3 µM (inactive) | – | 33.3 µM (inactive) | 32.6 µM (inactive) | 30 µM (inactive) | 34.4 µM (inactive) | 76.6 µM (inactive) | 18.2 µM (inactive)
CC1=C(C(=O)NNC(=O)Cc2ccccc2)CC(C(=O)NNC(=O)Cc2ccccc2)=C(C)N1 | > 100 µM (inactive) | > 100 µM (inactive) | > 100 µM (inactive) | > 100 µM (inactive) | > 100 µM (inactive) | > 100 µM (inactive) | > 100 | > 100 µM (inactive) | > 100 µM (inactive) | > 100 µM (inactive) | > 100 µM (inactive) | > 100 µM (inactive) | > 100 µM (inactive) | – | > 100 µM (inactive) | > 100 µM (inactive) | 54.8 µM (inactive) | > 100 µM (inactive) | > 100 µM (inactive) | > 100 µM (inactive)
CC(C)Oc1ccc2c(c1)OCC1Cc3ccccc3OC21 (stereo not given) | > 100 µM (inactive) | > 100 µM (inactive) | > 100 µM (inactive) | > 100 µM (inactive) | 49.2 µM (inactive) | > 100 µM (inactive) | 18.3 | – | 63.2 µM (inactive) | > 100 µM (inactive) | 96.8 µM (inactive) | 71.9 µM (inactive) | > 100 µM (inactive) | 88.1 µM (inactive) | > 100 µM (inactive) | > 100 µM (inactive) | 55.2 µM (inactive) | > 100 µM (inactive) | – | > 10 µM (inactive)
Cc1cc2c(O)nc(N)nc2nc1C | > 100 µM (inactive) | > 100 µM (inactive) | > 100 µM (inactive) | > 100 µM (inactive) | > 100 µM (inactive) | > 100 µM (inactive) | > 100 | > 100 µM (inactive) | > 100 µM (inactive) | > 100 µM (inactive) | – | > 100 µM (inactive) | > 100 µM (inactive) | > 100 µM (inactive) | > 100 µM (inactive) | > 100 µM (inactive) | > 100 µM (inactive) | > 100 µM (inactive) | > 100 µM (inactive) | > 100 µM (inactive)
CC(NC(=O)/C(=C/c1ccccc1)NC(=O)c1ccccc1)C(=O)O (stereo not given) | 91.4 µM (inactive) | 39.5 µM (inactive) | 6.59 µM (inactive) | 21.3 µM (inactive) | 55.8 µM (inactive) | > 100 µM (inactive) | 87.9 | – | 96.4 µM (inactive) | 26.1 µM (inactive) | > 100 µM (inactive) | 40.5 µM (inactive) | 29.7 µM (inactive) | > 100 µM (inactive) | 34 µM (inactive) | > 100 µM (inactive) | 29.6 µM (inactive) | 92.3 µM (inactive) | 77.1 µM (inactive) | > 100 µM (inactive)
Cc1cn([C@H]2C[C@H](O)[C@@H](CO)O2)c(=O)nc1N | > 100 µM (inactive) | > 100 µM (inactive) | > 100 µM (inactive) | > 100 µM (inactive) | > 100 µM (inactive) | > 100 µM (inactive) | > 100 | > 100 µM (inactive) | > 100 µM (inactive) | > 100 µM (inactive) | – | > 100 µM (inactive) | > 100 µM (inactive) | > 100 µM (inactive) | > 100 µM (inactive) | > 100 µM (inactive) | > 100 µM (inactive) | > 100 µM (inactive) | > 100 µM (inactive) | > 100 µM (inactive)
O=C1NC(N2CCOCC2)=N/C1=C\c1cccs1 | > 100 µM (inactive) | > 100 µM (inactive) | 36.2 µM (inactive) | > 100 µM (inactive) | > 100 µM (inactive) | > 100 µM (inactive) | > 100 | > 100 µM (inactive) | > 100 µM (inactive) | > 100 µM (inactive) | 4.65 µM (inactive) | > 100 µM (inactive) | > 100 µM (inactive) | – | > 100 µM (inactive) | > 100 µM (inactive) | > 100 µM (inactive) | > 100 µM (inactive) | > 100 µM (inactive) | > 100 µM (inactive)
CCOC(=O)c1c(C)cc(=O)n2c1[nH]c1ccccc12 | > 100 µM (inactive) | 63.5 µM (inactive) | – | > 100 µM (inactive) | 64 µM (inactive) | – | 50.9 | – | 74.6 µM (inactive) | > 100 µM (inactive) | 78.7 µM (inactive) | > 100 µM (inactive) | 17.2 µM (inactive) | 50.9 µM (inactive) | 34.6 µM (inactive) | > 100 µM (inactive) | > 100 µM (inactive) | 37.4 µM (inactive) | 88.3 µM (inactive) | > 100 µM (inactive)
OC(CCN1CCN(CCOC(c2ccccc2)c2ccccc2)CC1)c1ccc(Br)cc1 (stereo not given) | 2.38 µM (inactive) | 10.7 µM (inactive) | 11.4 µM (inactive) | 10.9 µM (inactive) | 10.9 µM (inactive) | 14.8 µM (inactive) | 6.43 | 12.6 µM (inactive) | 15.6 µM (inactive) | 15 µM (inactive) | 1.73 µM (inactive) | 8.36 µM (inactive) | 12.2 µM (inactive) | – | 11.9 µM (inactive) | 3.27 µM (inactive) | 10.4 µM (inactive) | 11.8 µM (inactive) | 15.8 µM (inactive) | 1.71 µM (inactive)
CCOC(=O)C1(NC(=O)OC(C)(C)C)CCc2[nH]oc(=O)c2C1 (stereo not given) | > 100 µM (inactive) | > 100 µM (inactive) | 9.95 µM (inactive) | > 100 µM (inactive) | > 100 µM (inactive) | – | > 100 | > 100 µM (inactive) | > 100 µM (inactive) | > 100 µM (inactive) | > 100 µM (inactive) | > 100 µM (inactive) | > 100 µM (inactive) | > 100 µM (inactive) | > 100 µM (inactive) | > 100 µM (inactive) | > 100 µM (inactive) | > 100 µM (inactive) | > 100 µM (inactive) | > 100 µM (inactive)
